{
  "source": "patent US12275953B2",
  "about": "“Methods for screening host cells expressing target proteins” (Industrial Technology Research Institute, priority 2020, dated 2025)",
  "key": {"[1]": {"test_system": "CHOK1 cell lines Fth1_WT and Fth1_KO", "test": "Cytotoxicity test of screening medium formulations (AlamarBlue cell viability)", "conditions": "FINO2 and fatty acid PA together, without the addition of iron ions FeSO4"}, "[2]": {"test_system": "SKBR3 breast cancer cells rich in HER2 antigen", "test": "ADCC biological activity reporter gene assay (Jurkat-hFcγRIIIa-NFAT effector cells, luciferase)", "format": "cell-based", "conditions": "compared with the validated purified Anti-HER2 IgG1 (h4D5) recombinant antibody protein; 24 hours of reaction", "experimental": "Jurkat-hFcγRIIIa-NFAT gene transgenic cells was used as effector cells and SKBR3 breast cancer cells rich in HER2 antigen was used as target cells in ADCC biological activity reporter gene detection system (Promega, #G9790).\nFirst, 100 μl of SKBR3 cells with a cell density of 10^5/ml were added to the 96-well culture plate, placed at 37° C. for overnight culture to allow the cells to adhere and grow, the supernatant was removed the next day, and 25 μl of serially diluted recombinant antibodies prepared in […] medium containing 0.5% fetal bovine serum were added. Next, 25 μl of lurkat-hFcγRIIIa-NFAT effector cells with a cell density of 6×10^6/ml were added."}, "[3]": {"test_system": "CHOK1 cell lines Fth1-WT and Fth1-KO transfected with pCDNA3.1-CMV-cgFth1-p2A-EGFP", "test": "Screening efficiency of transfected cells under iron ion-induced ferroptosis (Celigo Image Cytometer)", "format": "cell-based, Chinese hamster", "experimental": "After 24 hours of adherent culture in F12 medium (Ham's F-12 Nutrient Mix, Gibco) containing 10% FBS, the transfection of vector (pCDNA3.1-CMV-cgFth1-p2A-EGFP) was carried out with Lipofectamine 3000 (Thermo Fisher Scientific Inc.) to promote the overexpression of FTH1 gene. 24 hours after the DNA transfection of the vectors, 125 μM ferrous sulfate (FeSO4) was added to the cell culture broth, and at the same time different doses of ferroptosis inducers FINO2 (0 μM to 20 μM) were added to induce ferroptosis. After 3 days (72 hours) of action, the Celigo Image Cytometer (Nexcelom) was used to analyze the cell morphology, viability, cell count, fluorescent cell count, and fluorescence quantification, thereby estimating the screening efficiency."}, "HEK293T cell line": {"test_system": "HEK293T cell line", "conditions": "125 μM FeSO4, 72 hours, cells transfected with pCDNA3.1-CMV-cgFth1-p2A-EGFP vs Mock vector", "experimental": "(§1) After 24 hours of adherent culture in F12 medium (Ham's F-12 Nutrient Mix, Gibco) containing 10% FBS, the transfection of vectors (pCDNA3.1-CMV-cgFth1-p2A-EGFP and pCDNA3.1-CMV-p2A-EGFP_Mock, which served as a blank control group) were carried out with Lipofectamine 3000 (Thermo Fisher Scientific Inc.) to promote the overexpression of FTH1 gene. 24 hours after the DNA transfection of the vectors, 125 μM ferrous sulfate (FeSO4) was added to the cell culture broth, and at the same time different doses of ferroptosis inducers FINO2 (0 μM to 20 μM) were added to induce ferroptosis. After 3 days (72 hours) of action, the Celigo Image Cytometer (Nexcelom) was used to analyze the fluorescence cell count and fluorescence quantification, thereby estimating the screening efficiency."}, "VERO cell line": {"test_system": "VERO cell line", "conditions": "125 μM FeSO4, 72 hours, cells transfected with pCDNA3.1-CMV-cgFth1-p2A-EGFP vs Mock vector", "experimental": "as §1"}, "[4]": {"test_system": "CHOK1 cell lines Fth1_WT and Fth1_KO"}},
  "note": "Where two headings read alike, the source gives them in different places.",
  "data": [
    {"compound": "CCCCCCCCCCCCCCCC(=O)O", "note": "[PA, Palmitic acid]", "values": [
      {"measurement": "cytotoxicity", "setting": "[1]", "value": "did not cause cytotoxicity"}
    ]},
    {"compound": "V3: Anti-HER2 IgG1 (h4D5) recombinant antibody from cell line C8, vector pcDNA3.1-CMV-GOI1-furin-p2A-GOI2-IRES-cgFth1, without adding iron ions", "values": [
      {"measurement": "ADCC effect", "setting": "[2]", "value": "could obviously induce ADCC"}
    ]},
    {"compound": "CC1(CCO)CC2(CCC(C(C)(C)C)CC2)OO1", "note": "(centres unmarked) [FINO2]", "values": [
      {"measurement": "relation of increased dose to overall cell viability", "setting": "[3]; FINO2 0 μM to 20 μM with 125 μM FeSO4, 72 hours", "value": "negatively correlated with overall cell viability"},
      {"measurement": "cell screening rate", "setting": "[3]; high dose of ferroptosis inducer (>15 μM), 125 μM FeSO4, 72 hours", "value": 100, "unit": "%"},
      {"measurement": "concentration producing significant screening effects", "setting": "HEK293T cell line", "value": 1.25, "unit": "µM"},
      {"measurement": "concentration producing significant screening effects", "setting": "VERO cell line", "value": 5, "unit": "µM"},
      {"measurement": "cytotoxicity", "setting": "[4]", "value": "did not cause cytotoxicity"}
    ]},
    {"compound": "V2: Anti-HER2 IgG1 (h4D5) recombinant antibody produced by expression vector pBudCE4.1-CMV-GOI1-SV40-cgFth1-EF1α-GOI2", "values": [
      {"measurement": "ADCC effect", "setting": "[2]", "value": "could obviously induce ADCC"}
    ]}
  ]
}
